Assay results from article PMC9143880, “Improving Antimicrobial Activity and Physico-Chemical Properties by Isosteric Replacement of 2-Aminothiazole with 2-Aminooxazole” (Pharmaceuticals, 2022).
Converted amounts (≈) assume the structure as drawn. Read-outs that look alike come from different tables or passages of the source.

Experiments:
[1] = tested on: M. smegmatis DSM 43465 (ATCC 607); experiment: Antimycobacterial MIC, microdilution broth / resazurin; type: cell-based; details: Mycolicibacterium smegmatis, read-out: MIC M. smegmatis
[2] = tested on: Candida albicans CCM 8320 (ATCC 24433); experiment: Antifungal microdilution broth (EUCAST); details: Candida albicans, 24 h, read-out: MIC CA
[3] = tested on: Trichophyton interdigitale CCM 8377 (ATCC 9533); experiment: Antifungal microdilution broth (EUCAST); details: Trichophyton interdigitale, 72 h, read-out: MIC TI
[4] = tested on: M. avium DSM 44156 (ATCC 25291); experiment: Antimycobacterial MIC, microdilution broth / resazurin; type: cell-based, Mycobacterium avium; details: for MIC: Mycobacterium avium, read-out: MIC M. avium
[5] = tested on: Candida krusei CCM 8271 (ATCC 6258); experiment: Antifungal microdilution broth (EUCAST); details: Pichia kudriavzevii, 24 h, read-out: MIC CK
[6] = tested on: Enterococcus faecalis CCM 4224 (ATCC 29212); experiment: Antibacterial microdilution broth (EUCAST); type: cell-based; details: Enterococcus faecalis; 24h incubation; read-out: MIC EF
[7] = tested on: Staphylococcus epidermidis CCM 4418 (ATCC 12228); experiment: Antibacterial microdilution broth (EUCAST); type: cell-based; details: Staphylococcus epidermidis; 24h incubation; read-out: MIC SE
[8] = tested on: Pseudomonas aeruginosa CCM 3955 (ATCC 27853); experiment: Antibacterial microdilution broth (EUCAST); type: cell-based; details: Pseudomonas aeruginosa; 72h incubation; read-out: MIC PA
[9] = tested on: Staphylococcus aureus subsp. aureus CCM 4223 (ATCC 29213); experiment: Antibacterial microdilution broth (EUCAST); type: cell-based; details: Staphylococcus aureus; 24h incubation; read-out: MIC SA
[10] = tested on: M. aurum DSM 43999 (ATCC 23366); experiment: Antimycobacterial MIC, microdilution broth / resazurin; type: cell-based; details: Mycolicibacterium aurum, read-out: MIC M. aurum
[11] = tested on: Candida parapsilosis CCM 8260 (ATCC 22019); experiment: Antifungal microdilution broth (EUCAST); details: Lodderomyces parapsilosis, 24 h, read-out: MIC CP
[12] = tested on: M. kansasii DSM 44162 (ATCC 12478); experiment: Antimycobacterial MIC, microdilution broth / resazurin; type: cell-based; details: Mycobacterium kansasii, read-out: MIC M. kansasii
[13] = tested on: Aspergillus fumigatus ATCC 204305; experiment: Antifungal microdilution broth (EUCAST); details: Aspergillus fumigatus, ATCC204305, 24 h, read-out: MIC AF
[14] = tested on: Lichtheimia corymbifera CCM 8077; experiment: Antifungal microdilution broth (EUCAST); details: Lichtheimia corymbifera, CCM8077, 24 h, read-out: MIC LC
[15] = tested on: Aspergillus flavus CCM 8363; experiment: Antifungal microdilution broth (EUCAST); details: Aspergillus flavus, CCM8363, 24 h, read-out: MIC AFla
[16] = RP-UHPLC lipophilicity parameter log k’w; type: physicochemical; details: for log k’w: RP-UHPLC, acetonitrile/water, log k extrapolated to 0% acetonitrile; for logkw: experimental lipophilicity parameter
Source text: Lipophilicity and water solubility of the drug candidates are important parameters as they are often directly related to their ADME properties in the organism. Lipophilicity is usually expressed as the logarithm of the partition coefficient in n-octanol/water (log P). Due to its laborious determination, especially in the HTS screening, other experimental methods such as RP-HPLC log k’w or purely computational approaches such as Clog P were proposed and have been established as reasonable estimators of true lipophilicity. To investigate the changes in lipophilicity upon introduction of oxazole in the title compounds, we determined the log k’w of all derivatives and compared respective values among the pairs.
The log k of the synthesized compounds was measured using the same instrument (single measurement per concentration), software, and column as was used in the purity evaluation. Working solutions were diluted as described above for purity determination. The log k parameter was calculated after the UHPLC measurements using isocratic mode with mobile phase acetonitrile (B)/water (A) in a set of concentrations of 40, 45, 50% and 20, 30, 40% B for subtype I and subtype II, respectively.

[17] = tested on: Candida tropicalis CCM 8264 (ATCC 750); experiment: Antifungal microdilution broth (EUCAST); details: Candida tropicalis, 24 h, read-out: MIC CT
[18] = tested on: Staphylococcus aureus subsp. aureus (MRSA) CCM 4750 (ATCC 43300); experiment: Antibacterial microdilution broth (EUCAST); type: cell-based; details: Staphylococcus aureus; 24h incubation; read-out: MIC MRSA
[19] = tested on: Escherichia coli CCM 3954 (ATCC 25922); experiment: Antibacterial microdilution broth (EUCAST); type: cell-based; details: Escherichia coli; 24h incubation; read-out: MIC EC
[20] = tested on: Mycobacterium tuberculosis H37Ra ITM-M006710 (ATCC 9431); experiment: Antimycobacterial MIC, microdilution broth / Alamar Blue (resazurin); type: cell-based; details: Mycobacterium tuberculosis, 120 h, Middlebrook 7H9, resazurin after 120 h; read-out: Mtb H37Ra MIC
[21] = tested on: Acinetobacter baumannii DSM 30007 (ATCC 19606); experiment: Antibacterial microdilution broth (EUCAST); type: cell-based; details: Acinetobacter baumannii; 24h incubation; read-out: MIC AB

| Structure (SMILES) | MIC ([1]; resazurin after 48 h) [µg/mL] | MIC [2] [µM] | MIC [3] [µM] | MIC [5] [µM] | MIC [6] [µM] | MIC [7] [µM] | MIC [8] [µM] | MIC [9] [µM] | MIC [11] [µM] | MIC [13] [µM] | MIC [14] [µM] | MIC [15] [µM] | log k’w [16] | logkw [16] | MIC [17] [µM] | melting point [°C] | MIC [18] [µM] | MIC [19] [µM] | MIC [20] [µg/mL] | MIC [21] [µM] | also measured |
| --- | --- | --- | --- | --- | --- | --- | --- | --- | --- | --- | --- | --- | --- | --- | --- | --- | --- | --- | --- | --- | --- |
| Cc1cc(C(=O)Nc2nc(-c3ccccc3)co2)cc(Cl)n1 [Compound 16b] | 31.2 (≈ 99.6 µM) | > 125 | 62.5 (≈ 19.6 µg/mL) | > 125 | > 125 | 125 (≈ 39.2 µg/mL) | > 125 | 62.5 (≈ 19.6 µg/mL) | > 125 | > 125 | > 125 | > 125 | 2.251 | 2.251 | > 125 | 83 to 86 | 62.5 (≈ 19.6 µg/mL) | > 125 | 15.6 (≈ 49.8 µM) | > 125 | MIC ([4]; resazurin after 96 h): 7.81 µg/mL (≈ 24.9 µM); MIC ([10]; resazurin after 72 h): 7.81 µg/mL (≈ 24.9 µM); MIC ([12]; 96 h): 15.6 µg/mL (≈ 49.8 µM) |
| Cc1cc(C(=O)Nc2nc(-c3ccccc3)cs2)cc(Cl)n1 [Compound 16a] |  | > 125 | > 125 | > 125 | > 500 | > 500 | > 500 | > 500 | > 125 | > 125 | > 125 | > 125 | 3.314 | 3.314 | > 125 | 92 to 96 | > 500 | > 500 | 7.81 (≈ 23.7 µM) | > 500 | MIC ([1]; 48 h): 7.81 µg/mL (≈ 23.7 µM); MIC ([4]; 96 h): 7.81 µg/mL (≈ 23.7 µM); MIC ([10]; resazurin after 72 h): 15.6 µg/mL (≈ 47.4 µM); MIC ([12]; resazurin after 96 h): 3.91 µg/mL (≈ 11.9 µM) |
| O=C(Nc1ncco1)c1cnc(Cl)cn1 [Compound 9b] | 62.5 (≈ 278 µM) | 250 (≈ 56.2 µg/mL) | 62.5 (≈ 14 µg/mL) | 250 (≈ 56.2 µg/mL) | > 500 | > 500 | > 500 | > 500 | 500 (≈ 112 µg/mL) | 500 (≈ 112 µg/mL) | 500 (≈ 112 µg/mL) | > 500 | 0.958 | 0.958 | > 500 | 160 to 164 | > 500 | > 500 | 31.2 (≈ 139 µM) | > 500 | MIC ([4]; 96 h): 31.2 µg/mL (≈ 139 µM); MIC ([10]; resazurin after 72 h): 15.6 µg/mL (≈ 69.6 µM); MIC ([12]; resazurin after 96 h): < 3.91 µg/mL |
| O=C(Nc1nc(-c2ccccc2)co1)c1cnc2ccccc2n1 [Compound 19b] | ≥ 500 | > 125 | > 125 | > 125 | > 500 | > 500 | > 500 | > 500 | > 125 | > 125 | > 125 | > 125 | 2.465 | 2.465 | > 125 | 181 to 183 | > 500 | > 500 | ≥ 500 | > 500 | MIC ([4]; resazurin after 96 h): 7.81 µg/mL (≈ 24.7 µM); MIC M. avium ([4]; resazurin after 96 h): strongly active; MIC ([10]; resazurin after 72 h): ≥ 500 µg/mL; MIC ([12]; resazurin after 96 h): 3.91 µg/mL (≈ 12.4 µM) |
| O=C(Nc1ncco1)c1cnccn1 [Compound 8b] | ≥ 500 | > 500 | 500 (≈ 95.1 µg/mL) | > 500 | > 500 | > 500 | > 500 | > 500 | > 500 | > 500 | 500 (≈ 95.1 µg/mL) | > 500 | 0.154 | 0.154 | > 500 | 160 to 164 | > 500 | > 500 | 31.2 (≈ 164 µM) | > 500 | MIC ([4]; resazurin after 96 h): 62.5 µg/mL (≈ 329 µM); MIC ([10]; 72 h): 31.2 µg/mL (≈ 164 µM); MIC ([12]; resazurin after 96 h): 15.6 µg/mL (≈ 82.2 µM) |
